Data on 15 compounds can be found in patent publication US20190016689A1, “NOVEL FLUORINATED QUINAZOLINE DERIVATIVES AS EGFR INHIBITORS” (TRILLIUM THERAPEUTICS INC., priority 2016, published 2019).

A short description of data set [1]: Evaluation of P-gp efflux: Caco-2 permeability. Particulars: human, Caco-2, pH 7.4. Here is the method:
(§1) At this stage of growth, cell monolayers were fully polarized and differentiated.
(§2) The permeability assay buffer was Hanks Balanced Salt Solution containing 10 mM HEPES and 15 mM glucose at a pH of 7.4. The dosing buffer contained 5 μM metoprolol (positive control), 5 μM atenolol (negative control) and 100 μM lucifer yellow. The buffer in the receiver chamber also contained 1% bovine serum albumin (BSA). The dosing solution concentration was 5 μM in the assay buffer. Digoxin (20 μM) was used as Pgp substrate control.
(§3) The known Pgp inhibitor was co-dosed at 50 μM with compound at 5 μM.
(§4) Cell monolayers were dosed on the apical side (A-to-B) or basolateral side (B-to-A) and incubated at 37° C. in a shaker (65 rpm). Samples were taken from the donor and receiver chambers at 120 minutes. Each determination was performed in duplicate.
(§5) Narrow-window mass extraction LC/MS analysis was performed for all samples from this study using a Waters Xevo quadrupole time-of-flight (QTof) mass spectrometer, to determine relative peak areas of parent compound. The percent of transported drug was calculated based on these peak areas, relative to the initial, dosing concentration.
A general note: Caco-2 cells form a polarised layer with tight junctions and transporters.

Data set [2] has as its system P-gp. Nature of the data set: Evaluation of P-gp efflux: Caco-2 permeability. Conditions: human, Caco-2, pH 7.4. The procedure: as §1, §2, §3, §4, §5
The target in data set [3] is EGFR (T790M) (Homo sapiens, UniProt P00533, T790M, form not given). As to the kind of experiment: Kinase HotSpot profiling (33P-ATP filter binding). It is filed as biochemical. The procedure: Base Reaction buffer; 20 mM Hepes (pH 7.5), 10 mM MgCl2, 1 mM EGTA, 0.02% Brij35, 0.02 mg/ml BSA, 0.1 mM Na3VO4, 2 mM DTT, 1% DMSO • Required cofactors are added individually to each kinase reaction
1. The indicated substrate was prepared in fresh Base Reaction Buffer.
2. Any required cofactors were added to the substrate solution above.
3. Indicated kinase was added into the substrate solution and gently mixed.
4. Compounds in DMSO were added into the kinase reaction mixture by Acoustic technology (Echo550; nanoliter range) and incubated for 20 minutes at room temperature.
5. 33P-ATP (specific activity 10 μCi/μl) was added into the reaction mixture to initiate the reaction.
6. The kinase reaction was incubated for 2 hours at room temperature
7. Reactions were spotted onto P81 ion exchange paper.
8. Kinase activity was detected by filter-binding method.
IC50 (nM) concentrations are illustrated in Table 5. This assay confirms that compounds of the application are effective inhibitors of the target EGFR receptors.

Sequence of EGFR (T790M) (P00533 whole entry T790M, form open): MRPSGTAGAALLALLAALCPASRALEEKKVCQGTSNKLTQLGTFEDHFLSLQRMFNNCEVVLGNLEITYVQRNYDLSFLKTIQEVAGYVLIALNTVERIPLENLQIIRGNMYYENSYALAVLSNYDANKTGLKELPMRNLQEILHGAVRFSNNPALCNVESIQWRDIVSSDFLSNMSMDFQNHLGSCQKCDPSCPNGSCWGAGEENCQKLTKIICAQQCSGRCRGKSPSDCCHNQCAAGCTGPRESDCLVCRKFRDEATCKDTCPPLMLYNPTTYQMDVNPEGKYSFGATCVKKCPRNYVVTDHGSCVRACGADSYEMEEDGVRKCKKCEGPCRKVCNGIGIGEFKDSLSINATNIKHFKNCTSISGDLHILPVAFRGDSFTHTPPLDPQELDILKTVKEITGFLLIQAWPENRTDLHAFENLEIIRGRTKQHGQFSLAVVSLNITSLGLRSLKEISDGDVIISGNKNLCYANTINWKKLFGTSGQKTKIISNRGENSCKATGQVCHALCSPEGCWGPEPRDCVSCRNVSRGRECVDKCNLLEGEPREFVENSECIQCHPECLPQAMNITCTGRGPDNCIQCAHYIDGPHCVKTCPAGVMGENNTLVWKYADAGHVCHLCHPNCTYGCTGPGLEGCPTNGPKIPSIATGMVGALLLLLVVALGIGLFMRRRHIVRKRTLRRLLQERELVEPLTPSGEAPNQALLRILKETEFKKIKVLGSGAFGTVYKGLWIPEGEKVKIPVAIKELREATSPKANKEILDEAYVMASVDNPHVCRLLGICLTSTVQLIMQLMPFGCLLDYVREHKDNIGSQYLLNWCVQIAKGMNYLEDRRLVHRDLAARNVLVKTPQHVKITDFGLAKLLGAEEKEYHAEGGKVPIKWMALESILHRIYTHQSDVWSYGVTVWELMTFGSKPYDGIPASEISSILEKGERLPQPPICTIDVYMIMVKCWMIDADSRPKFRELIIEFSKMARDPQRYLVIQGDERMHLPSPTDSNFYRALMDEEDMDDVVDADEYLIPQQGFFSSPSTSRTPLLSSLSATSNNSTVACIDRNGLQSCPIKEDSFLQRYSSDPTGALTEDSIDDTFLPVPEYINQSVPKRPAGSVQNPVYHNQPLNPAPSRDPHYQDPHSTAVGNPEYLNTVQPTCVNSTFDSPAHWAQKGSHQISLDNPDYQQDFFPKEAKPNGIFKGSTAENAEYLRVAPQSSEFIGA

`C[C@H]1O[C@@H](O[C@H]2[C@@H](O)C[C@H](O[C@H]3[C@@H](O)C[C@H](O[C@H]4CC[C@@]5(C)[C@H](CC[C@@H]6[C@@H]5C[C@@H](O)[C@]5(C)[C@@H](C7=CC(=O)OC7)CC[C@]65O)C4)O[C@@H]3C)O[C@@H]2C)C[C@H](O)[C@@H]1O` [Digoxin]: in data set [1], the Papp A→B at 120 min, 5 µM is 0.75 ×10⁻⁶ cm/s and the apparent permeability from basolateral to apical (Papp B→A) at 120 min, 5 µM came out at 22.7 ×10⁻⁶ cm/s. In addition, the efflux ratio at 120 min, 5 µM in data set [2] was determined as 30.4.
In data set [3], `CN(C)C/C=C/C(=O)Nc1cc2c(Nc3ccc(Cl)c(Cl)c3F)ncnc2cc1OCCOC(F)F` [Example I-2, (E)-N-[4-(3,4-dichloro-2-fluoro-anilino)-7-[2-(difluoromethoxy)ethoxy]quinazolin-6-yl]-4-(dimethylamino)but-2-enamide] displayed an IC50 of 16.4 nM.
Compound `O=C(/C=C/CN1CCOCC1)Nc1cc2c(Nc3ccc(Cl)c(Cl)c3F)ncnc2cc1OCCOC(F)F` [Example I-3, (E)-N-[4-(3,4-dichloro-2-fluoro-anilino)-7-[2-(difluoromethoxy)ethoxy]quinazolin-6-yl]-4-morpholino-but-2-enamide] came in with a half-inhibitory concentration (IC50) in data set [3] of 5.56 nM.
`CN(C)C/C=C/C(=O)Nc1cc2c(Nc3cccc(Cl)c3F)ncnc2cc1OCCOC(F)F` [Example I-5, (E)-N-[4-(3-chloro-2-fluoro-anilino)-7-[2-(difluoromethoxy)ethoxy]quinazolin-6-yl]-4-(dimethylamino)but-2-enamide] came in with a half-maximal inhibitory concentration (IC50) in data set [3] of 0.707 nM. Against the preceding compound, the IC50 is about 7.9-fold lower.
On to `O=C(/C=C/CN1CCOCC1)Nc1cc2c(Nc3cccc(Cl)c3F)ncnc2cc1OCCOC(F)F` [Example I-7, (E)-N-[4-(3-chloro-2-fluoro-anilino)-7-[2-(difluoromethoxy)-ethoxy]quinazolin-6-yl]-4-morpholino-but-2-enamide], for which the IC50 in data set [3] is 10.5 nM.
Still for that read-out and setting: then `O=C(/C=C/CN1CCC(OC(F)F)CC1)Nc1cc2c(Nc3cccc(Cl)c3F)ncnc2cc1OCCOC(F)F` [Example I-8, (E)-N-[4-(3-chloro-2-fluoro-anilino)-7-[2-(difluoromethoxy)-ethoxy]quinazolin-6-yl]-4-[4-(difluoromethoxy)-1-piperidyl]but-2-enamide], with 79.5 nM; and `CN(C)C/C=C/C(=O)Nc1cc2c(Nc3ccc(F)c(Cl)c3F)ncnc2cc1OCCOC(F)F` [Example I-9, (E)-N-[4-(3-chloro-2,4-difluoro-anilino)-7-[2-(difluoromethoxy)-ethoxy]quinazolin-6-yl]-4-(dimethylamino)but-2-enamide], with 0.0597 nM.
Still for that read-out and setting: under `O=C(/C=C/CN1CCCCC1)Nc1cc2c(Nc3ccc(F)c(Cl)c3F)ncnc2cc1OCCOC(F)F` [Example I-10, (E)-N-[4-(3-chloro-2,4-difluoro-anilino)-7-[2-(difluoromethoxy)ethoxy]quinazolin-6-yl]-4-(1-piperidyl)but-2-enamide] stands 0.156 nM.
Compound `O=C(/C=C/CN1CC(F)(F)C1)Nc1cc2c(Nc3ccc(F)c(Cl)c3F)ncnc2cc1OCCOC(F)F` [Example I-16, (E)-N-[4-(3-chloro-2,4-difluoro-anilino)-7-[2-(difluoromethoxy)ethoxy]quinazolin-6-yl]-4-(3,3-difluoroazetidin-1-yl)but-2-enamide] came in with an IC50 in data set [3] of 13.7 nM.
As for `COc1cc2ncnc(Nc3ccc(Cl)c(Cl)c3F)c2cc1NC(=O)/C=C/CN1CCC(OC(F)F)CC1` [Example I-17, (E)-N-[4-(3,4-dichloro-2-fluoro-anilino)-7-methoxy-quinazolin-6-yl]-4-[4-(difluoromethoxy)-1-piperidyl]but-2-enamide], in data set [3], the IC50 worked out at 817 nM.
In data set [3], `COc1cc2ncnc(Nc3ccc(F)c(Cl)c3)c2cc1NC(=O)/C=C/CN1CCC(OC(F)F)CC1` [Example I-18, (E)-N-[4-(3-chloro-4-fluoro-anilino)-7-methoxy-quinazolin-6-yl]-4-[4-(difluoromethoxy)-1-piperidyl]but-2-enamide] yielded an IC50 of 62.8 nM.
Consider `O=C(/C=C/CN1CCC(OC(F)F)CC1)Nc1cc2c(Nc3ccc(F)c(Cl)c3)ncnc2cc1OCCOC(F)F` [Example I-22, (E)-N-[4-(3-chloro-4-fluoro-anilino)-7-[2-(difluoromethoxy)ethoxy]quinazolin-6-yl]-4-[4-(difluoromethoxy)-1-piperidyl]but-2-enamide], for which the 50% inhibitory concentration (IC50) in data set [3] was determined as 13.1 nM.
In turn, `C#Cc1cccc(Nc2ncnc3cc(OCCOC(F)F)c(NC(=O)/C=C/CN(C)C)cc23)c1F` [Example I-25, (E)-N-[7-[2-(difluoromethoxy)ethoxy]-4-(3-ethynyl-2-fluoro-anilino)quinazolin-6-yl]-4-(dimethylamino)but-2-enamide] returned an IC50 in data set [3] of 0.679 nM. This IC50 lies about 19-fold lower than the previous one.
In data set [1], `COc1cc2nc(N3CCN(C(=O)c4ccco4)CC3)nc(N)c2cc1OC` [Prazosin] had an apical-to-basolateral permeability (Papp A→B) at 120 min, 5 µM of 21.7 ×10⁻⁶ cm/s and a basolateral-to-apical permeability (Papp B→A) at 120 min, 5 µM of 34.7 ×10⁻⁶ cm/s. The efflux ratio at 120 min, 5 µM in data set [2] was 1.59.
With `CC(C)NCC(O)COc1cccc2ccccc12` (stereo not drawn) [Propranolol], in data set [1], the apparent permeability from apical to basolateral (Papp A→B) at 120 min, 5 µM was found to be 21.1 ×10⁻⁶ cm/s and the apparent permeability from basolateral to apical (Papp B→A) at 120 min, 5 µM came to 15.8 ×10⁻⁶ cm/s. Besides, the efflux ratio at 120 min, 5 µM in data set [2] was 0.75.

By Papp A→B is commonly meant how fast a substance crosses the layer from the apical side. High values mean fast passage, low ones slow passage. Usually Papp B→A stands for how fast a substance crosses the layer from the basolateral side. As usually defined, the efflux ratio is a quotient of directional permeabilities that is used to spot active efflux. By IC50 is commonly meant the concentration that inhibits the measured activity by half. A higher IC50 goes with lower potency.
